Where two headings read alike, the source gives them in different places. Marks after values point to notes of the source that are not given here.
Legend:
Staphylococcus aureus = assay: Antimicrobial screening, resazurine test; format: cell-based; conditions: Staphylococcus aureus, read-out: Inhibition of the microorganism
Description: (§1) The resazurine test was used to evaluate this activity.
(§2) The cell inoculum was made in Mueller–Hinton broth (10 mL). Colonies of cells were inoculated from the solid medium that was cultivated for 24 h under optimum conditions. A part of the inoculum was diluted to get suspension with an optical density 0.6 to 0.9 McF. An aliquot amount (1 mL) was taken and diluted with additional volume of the medium (19 mL). The stored solutions of the tested compounds were made at a concentration c = 200 µg.mL^−1. The stored suspensions of the cells, MHB medium, solutions of the antibiotics specific for the given bacteria (vancomycin for S. aureus and E. faecalis, kanamycin for E. coli and P. aeruginosa, and tetracycline for B. cereus), and the solutions of the compounds were pipetted into the microtitration plates. Subsequently, a concentration sequence of the tested compounds was made (c = 100, 50, and 25 µg.mL^−1). The content of the microtitration plates was cultivated for 24 h under optimum conditions for the given bacteria. A solution of resazurine was made, based on a dilution of its stored solution (c = 0.15 mg.mL^−1; 2 mL) into the MHB medium (18 mL). Then, it was pipetted into the microtitration plates that were cultivated for an additional 1 h. Finally, fluorescence measurement (excitation at 560 nm, emission at 590 nm) was made, and the inhibition of the bacterium was determined.
(§3) 2. Antimicrobial screening tests
(§4) Antimicrobial activity of the target molecular ribbons 8a, 12a, 8b, 12b, 4c, 6c, 6d and 8d, and […]
(§5) aeruginosa, Staphylococcus aureus and Enterococcus faecalis. The resazurine test was used to […]
(§6) ribbons which have been achieved in this investigation.
(§7) Table S1. Antimicrobial activity, inhibition of the microorganism [%]
(§8) Comp. Staphylococcus aureus Comp. Escherichia coli […]
(§9) µg·mL-1 µg·mL-1 µg·mL-1 µg·mL-1 µg·mL-1 µg·mL-1
(§10) Comp. Bacillus cereus Comp. Pseudomonas aeruginosa

Bacillus cereus = assay: Antimicrobial screening, resazurine test; format: cell-based; conditions: for inhibition at 25 µg/mL / inhibition at 50 µg/mL / inhibition at 100 µg/mL: Bacillus cereus
Description: as §1, §2, §3, §4, §5, §6, §7, §8, §9, §10

Pseudomonas aeruginosa = assay: Antimicrobial screening, resazurine test; format: cell-based
Description: as §1, §2, §3, §4, §5, §6, §7, §8, §9, §10

Escherichia coli = assay: Antimicrobial screening, resazurine test; format: cell-based; conditions: Escherichia coli, read-out: Inhibition of the microorganism
Description: as §1, §2, §3, §4, §5, §6, §7, §8, §9, §10

Enterococcus faecalis = assay: Antimicrobial screening, resazurine test; format: cell-based; conditions: for inhibition at 25 µg/mL / inhibition at 50 µg/mL / inhibition at 100 µg/mL: Enterococcus faecalis, read-out: Inhibition of the microorganism
Description: as §1, §2, §3, §4, §5, §6, §7, §8, §9, §10

[1] = Ability to form supramolecular gel; format: physicochemical; conditions: 1% w/v in solvent, ultrasound 30 min, heated to boiling, cooled to r.t. 24 h
Description: The solutions of the studied compounds 8a, 12a, 8b, 12b, 4c, 6c, 6d, and 8d (1%, w/v) in the appropriate solvent were mixed with ultrasound for 30 min, then heated to the boiling points of the used solvents, and then allowed to cool down to the r.t. for 24 h. An example of the resulting gels that were produced from 8a, 4c, 6c, and 6d is shown in the Supplementary Material, Figure S1.

[2] = Self-assembly by UV-VIS spectrometry in methanol/water mixtures; format: physicochemical; conditions: 0-140 h
Description: The self-assembly of the selected compounds 8a, 12a, 8b, 12b, 4c, 6c, 6d, and 8d was measured using UV absorption in methanol/water mixtures with a constant concentration of the studied compound for 7 days in one-hour intervals on the first day, and in 24 h intervals all following days. The stock solutions of the studied compounds were prepared at a concentration of 1 mg·mL^−1 in water. Then, a series of methanol/water mixtures were prepared starting from a methanol/water ratio 100/0 down to 0/100 in 20% steps. The stock solutions of the studied compounds (0.15 mL) were added separately to each vial containing methanol/water mixtures (3 mL), and the UV spectra were recorded in the wavelength range of 200–400 nm. […] For the compounds 8a, 12a, 12b and 6d, the details are presented in the Supplementary Material; see Figure S2.
Supramolecular self-assembly was studied on the basis of the UV-VIS spectra of the compounds in several methanol/water mixtures stepwise during the time interval 0-140 h. Here we show compounds 8a, 12a, 12b and 6d as examples, with which the irregularities in the UV-VIS spectra were either well pronounced (8a and 12a; Figure S2), or no substantial irregularity was detected (12b and 6d).
Figure S2. UV-VIS spectra of 8a (top) and 12a (bottom) measured in the interval 0-140 h.
During that time interval a new maximum appeared at 300 nm wavelength, and the shape of the curves is different than in any of the other intervals of measurement. […]

[3] = B. cereus, c = 25 µg·mL-1, read-out: Inhibition of the microorganism
[4] = B. cereus, c = 50 µg·mL-1, read-out: Inhibition of the microorganism
[5] = B. cereus, c = 100 µg·mL-1, read-out: Inhibition of the microorganism
[6] = P. aeruginosa, c = 25 µg·mL-1, read-out: Inhibition of the microorganism
[7] = P. aeruginosa, c = 50 µg·mL-1, read-out: Inhibition of the microorganism
[8] = P. aeruginosa, c = 100 µg·mL-1, read-out: Inhibition of the microorganism
[9] = read-out: Inhibition of the microorganism

Row | Compound | inhibition at 25 µg/mL (Staphylococcus aureus; S. aureus, c = 25 µg·mL-1) [%] | inhibition at 50 µg/mL (Staphylococcus aureus; S. aureus, c = 50 µg·mL-1) [%] | inhibition at 100 µg/mL (Staphylococcus aureus; S. aureus, c = 100 µg·mL-1) [%] | inhibition at 25 µg/mL (Bacillus cereus; [3]) [%] | inhibition at 50 µg/mL (Bacillus cereus; [4]) [%] | inhibition at 100 µg/mL (Bacillus cereus; [5]) [%] | inhibition at 25 µg/mL (Pseudomonas aeruginosa; [6]) [%] | inhibition at 50 µg/mL (Pseudomonas aeruginosa; [7]) [%] | inhibition at 100 µg/mL (Pseudomonas aeruginosa; [8]) [%] | inhibition at 25 µg/mL (Escherichia coli; E. coli, c = 25 µg·mL-1) [%] | inhibition at 50 µg/mL (Escherichia coli; E. coli, c = 50 µg·mL-1) [%] | inhibition at 100 µg/mL (Escherichia coli; E. coli, c = 100 µg·mL-1) [%] | inhibition at 25 µg/mL (Enterococcus faecalis; E. faecalis, c = 25 µg·mL-1) [%] | inhibition at 50 µg/mL (Enterococcus faecalis; E. faecalis, c = 50 µg·mL-1) [%] | inhibition at 100 µg/mL (Enterococcus faecalis; E. faecalis, c = 100 µg·mL-1) [%] | other results
1 | CC1(C)CC[C@]2(C(=O)O)CC[C@]3(C)C(=CC[C@@H]4[C@@]5(C)CC[C@H](O)C(C)(C)[C@@H]5CC[C@]43C)[C@@H]2C1 [1a, Oleanolic acid, reference compound] | 0 to 1 | 8 ± 1.2 | 33 ± 5 | > 77 | 77 ± 11.6 | 77 ± 11.6 | 0 to 1 | 0 to 1 | 0 to 1 | 0 to 1 | 0 to 1 | 0 to 1 | > 87 | 90 ± 13.5 | 89 ± 13.4 | Inhibition of the microorganism (Bacillus cereus; B. cereus, c = 25 µg·mL-1): 76 ± 11.4%; Inhibition of the microorganism (Enterococcus faecalis; E. faecalis, c = 25 µg·mL-1): 87 ± 13.0%
2 | CC1(C)C=C2[C@H]3CC[C@@H]4[C@@]5(C)CC[C@H](O)C(C)(C)[C@@H]5CC[C@@]4(C)[C@]3(C)CC[C@@]2(C(=O)O)CC1 [1b, morolic acid, reference compound] | – | – | – | – | – | – | – | – | – | – | – | – | – | – | – | inhibition at 25 µg/mL (Staphylococcus aureus): 21 ± 3.2%; inhibition at 50 µg/mL (Staphylococcus aureus): 17 ± 2.6%; inhibition at 100 µg/mL (Staphylococcus aureus): 47 ± 7%; Inhibition of the microorganism (Bacillus cereus; B. cereus, c = 25 µg·mL-1): 78 ± 11.7%; inhibition at 25 µg/mL (Bacillus cereus; read-out: Inhibition of the microorganism, B. cereus, c = 25 µg·mL-1): > 77%; inhibition at 50 µg/mL (Bacillus cereus; read-out: Inhibition of the microorganism, B. cereus, c = 50 µg·mL-1): 76 ± 11.4%; inhibition at 100 µg/mL (Bacillus cereus; read-out: Inhibition of the microorganism, B. cereus, c = 100 µg·mL-1): 75 ± 11.3%; inhibition at 25 µg/mL (Pseudomonas aeruginosa; [9]): 0 to 1%; inhibition at 50 µg/mL (Pseudomonas aeruginosa; [9]): 0 to 1%; inhibition at 100 µg/mL (Pseudomonas aeruginosa; [9]): 0 to 1%; inhibition at 25 µg/mL (Escherichia coli): 0 to 1%; inhibition at 50 µg/mL (Escherichia coli): 2 ± 0.3%; inhibition at 100 µg/mL (Escherichia coli): 0 to 1%; inhibition at 25 µg/mL (Enterococcus faecalis): 38 ± 5.7%; inhibition at 50 µg/mL (Enterococcus faecalis): 64 ± 9.6%; inhibition at 100 µg/mL (Enterococcus faecalis): 69 ± 10.4%
3 | CC1(C)C=C2[C@H]3CC[C@@H]4[C@@]5(C)CCC(=O)C(C)(C)[C@@H]5CC[C@@]4(C)[C@]3(C)CC[C@@]2(C(=O)O)CC1 [1c, moronic acid, reference compound] | 0 to 1 | 3 ± 0.5 | 10 ± 1.5 | 0 to 1 | 15 ± 2.3 | 66 ± 9.9 | 0 to 1 | 0 to 1 | 0 to 1 | 0 to 1 | 0 to 1 | 0 to 1 | 0 to 1 | 0 to 1 | 0 to 1 | –
4 | CC1(C)C=C2[C@H]3CC[C@@H]4[C@@]5(C)CCC(=O)C(C)(C)[C@@H]5CC[C@@]4(C)[C@]3(C)CC[C@@]2(C(=O)NCCOCCOCCOCCn2cc(COC(=O)[C@]34CCC(C)(C)C=C3[C@H]3CC[C@@H]5[C@@]6(C)CCC(=O)C(C)(C)[C@@H]6CC[C@@]5(C)[C@]3(C)CC4)nn2)CC1 [4c] | 11 ± 1.7 | 66 ± 9.9 | 76 ± 11.4 | 2 ± 0.3 | 0 to 1 | 6 ± 9 | 50 ± 7.5 | 47 ± 7 | 46 ± 6.8 | 25 ± 3.8 | 34 ± 5.1 | 31 ± 4.7 | > 62 | 50 ± 7.5 | 43 ± 6.5 | Inhibition of the microorganism (Enterococcus faecalis; E. faecalis, c = 25 µg·mL-1): 62 ± 9.3 ^e %; Gel formation [1]: produced a gel in glycerol
5 | CC1(C)C=C2C3CC[C@@H]4[C@@]5(C)CC[C@H](OCc6cn(CCOCCOCCOCCNC(=O)[C@]78CCC(C)(C)C=C7C7CC[C@@H]9[C@@]%10(C)CC[C@H](O)C(C)(C)[C@@H]%10CC[C@@]9(C)[C@]7(C)CC8)nn6)C(C)(C)[C@@H]5CC[C@@]4(C)[C@]3(C)CC[C@@]2(C(=O)O)CC1 (stereo partly shown) [8b] | 0 to 1 | 24 ± 3.6 | 77 ± 11.6 | 16 ± 2.4 | 38 ± 5.7 | 0 to 1 | 33 ± 5 | 59 ± 8.9 | 60 ± 9 | 17 ± 2.6 | 25 ± 3.8 | 31 ± 4.7 | 20 ± 3 | 43 ± 6.5 | 54 ± 8.1 | –
6 | CC1(C)CC[C@]2(C(=O)O)CC[C@]3(C)C(=CC[C@@H]4[C@@]5(C)CC[C@H](OCc6cn(CCOCCOCCOCCNC(=O)[C@]78CCC(C)(C)CC7C7=CC[C@@H]9[C@@]%10(C)CC[C@H](OCc%11cn(CCOCCOCCOCCNC(=O)[C@]%12%13CCC(C)(C)CC%12C%12=CC[C@@H]%14[C@@]%15(C)CC[C@H](O)C(C)(C)[C@@H]%15CC[C@@]%14(C)[C@]%12(C)CC%13)nn%11)C(C)(C)[C@@H]%10CC[C@@]9(C)[C@]7(C)CC8)nn6)C(C)(C)[C@@H]5CC[C@]43C)C2C1 (stereo partly shown) [12a] | – | – | – | – | – | – | – | – | – | – | – | – | – | – | – | Irregularity in UV-VIS spectra (self-assembly) [2]: Irregularities were detected
7 | CC1(C)C=C2C3CC[C@@H]4[C@@]5(C)CC[C@H](OCc6cn(CCOCCOCCOCCNC(=O)[C@]78CCC(C)(C)C=C7C7CC[C@@H]9[C@@]%10(C)CC[C@H](OCc%11cn(CCOCCOCCOCCNC(=O)[C@]%12%13CCC(C)(C)C=C%12C%12CC[C@@H]%14[C@@]%15(C)CC[C@H](O)C(C)(C)[C@@H]%15CC[C@@]%14(C)[C@]%12(C)CC%13)nn%11)C(C)(C)[C@@H]%10CC[C@@]9(C)[C@]7(C)CC8)nn6)C(C)(C)[C@@H]5CC[C@@]4(C)[C@]3(C)CC[C@@]2(C(=O)O)CC1 (stereo partly shown) [12b] | – | – | – | – | – | – | – | – | – | – | – | – | – | – | – | Irregularity in UV-VIS spectra (self-assembly) [2]: No substantial irregularity was detected
8 | CN(C)[C@@H]1C(O)=C(C(N)=O)C(=O)[C@@]2(O)C(O)=C3C(=O)c4c(O)cccc4[C@@](C)(O)[C@H]3C[C@@H]12 [tetracycline, reference compound] | – | – | – | 99 | – | – | – | – | – | – | – | – | – | – | – | –
9 | CN[C@H](CC(C)C)C(=O)N[C@H]1C(=O)N[C@@H](CC(N)=O)C(=O)N[C@H]2C(=O)N[C@H]3C(=O)N[C@H](C(=O)N[C@H](C(=O)O)c4cc(O)cc(O)c4-c4cc3ccc4O)[C@H](O)c3ccc(c(Cl)c3)Oc3cc2cc(c3O[C@@H]2O[C@H](CO)[C@@H](O)[C@H](O)[C@H]2O[C@H]2C[C@](C)(N)[C@H](O)[C@H](C)O2)Oc2ccc(cc2Cl)[C@H]1O [vancomycin, reference compound] | – | – | – | – | – | – | – | – | – | – | – | – | – | – | – | inhibition at 25 µg/mL (Staphylococcus aureus): 99%; inhibition at 25 µg/mL (Enterococcus faecalis): 99%

Source: PMC8391127, “Triterpenoid–PEG Ribbons Targeting Selectivity in Pharmacological Effects” (Biomedicines, 2021)
